# Measured values taken from article PMC10700596 (Nature Communications, 2023).
# Values joined by “and” are separate entries in the source; they are usually repeats but may differ in a detail not shown here. Equal entries are not always repeated. Where two headings read alike, the source gives them in different places.
# Experiment: in vivo
# Assay type: in vivo, mice
# Conditions: mice; for concentration at 5 min / concentration at 15 min / concentration at 30 min / concentration at 60 min / concentration at 120 min / concentration at 240 min / concentration at 360 min / concentration at 480 min / concentration at 1440 min / CSF concentration, Final (individual sample) / Brain concentration, Final (individual sample) / Plasma concentration, Final (individual sample): 10 mg/kg, IP 10 mg/kg
smiles,measurement,setting,value
"CCc1nc2c(C)nc(C)cc2n1-c1ccc(CCNC(=O)NS(=O)(=O)c2ccc(C)cc2)cc1 [Grapiprant, reference compound]",concentration at 5 min,"male, CD-1, mouse, CSF, ip, CSF, 5 min, mean of 3, read-out: CSF concentration C (mean)",9.11 ng/mL
same,concentration at 15 min,"male, CD-1, mouse, CSF, ip, CSF, 15 min, individual animals, read-out: CSF concentration, Final (individual sample)",1.21 ng/mL
same,concentration at 15 min,"male, CD-1, mouse, CSF, ip, CSF, 15 min, mean of 3, read-out: CSF concentration C (mean)",1.7 ng/mL
same,concentration at 30 min,"male, CD-1, mouse, CSF, ip, CSF, 30 min, mean of 3, read-out: CSF concentration C (mean)",3.94 ng/mL
same,concentration at 60 min,"male, CD-1, mouse, CSF, ip, CSF, 60 min, mean of 3, read-out: CSF concentration C (mean)",0.35 ng/mL
same,concentration at 120 min,"male, CD-1, mouse, CSF, ip, CSF, 120 min, mean of 3, read-out: CSF concentration C (mean)",1.36 ng/mL
same,concentration at 240 min,"male, CD-1, mouse, CSF, ip, CSF, 240 min, individual animals, read-out: CSF concentration, Final (individual sample)",0 ng/mL
same,concentration at 240 min,"male, CD-1, mouse, CSF, ip, CSF, 240 min, mean of 3, read-out: CSF concentration C (mean)",0 ng/mL
same,concentration at 360 min,"male, CD-1, mouse, CSF, ip, CSF, 360 min, individual animals, read-out: CSF concentration, Final (individual sample)",0 ng/mL
same,concentration at 360 min,"male, CD-1, mouse, CSF, ip, CSF, 360 min, mean of 3, read-out: CSF concentration C (mean)",0 ng/mL
same,concentration at 480 min,"male, CD-1, mouse, CSF, ip, CSF, 480 min, mean of 3, read-out: CSF concentration C (mean)",0.4 ng/mL
same,concentration at 1440 min,"male, CD-1, mouse, CSF, ip, CSF, individual animals, read-out: CSF concentration, Final (individual sample)",0 ng/mL
same,concentration at 1440 min,"male, CD-1, mouse, CSF, ip, CSF, mean of 3, read-out: CSF concentration C (mean)",0 ng/mL
same,concentration at 5 min,"male, CD-1, mouse, brain, ip, brain, 5 min, individual animals, read-out: Brain concentration, Final (individual sample)",20.4 ng/g
same,concentration at 5 min,"male, CD-1, mouse, brain, ip, brain, 5 min, mean of 3, read-out: Brain concentration C (mean)",21.9 ng/g
same,concentration at 15 min,"male, CD-1, mouse, brain, ip, brain, 15 min, mean of 3, read-out: Brain concentration C (mean)",14.9 ng/g
same,concentration at 30 min,"male, CD-1, mouse, brain, ip, brain, 30 min, individual animals, read-out: Brain concentration, Final (individual sample)",11.3 ng/g
same,concentration at 30 min,"male, CD-1, mouse, brain, ip, brain, 30 min, mean of 3, read-out: Brain concentration C (mean)",11.1 ng/g
same,concentration at 60 min,"male, CD-1, mouse, brain, ip, brain, 60 min, mean of 3, read-out: Brain concentration C (mean)",6.66 ng/g
same,concentration at 120 min,"male, CD-1, mouse, brain, ip, brain, 120 min, individual animals, read-out: Brain concentration, Final (individual sample)",0 ng/g
same,concentration at 120 min,"male, CD-1, mouse, brain, ip, brain, 120 min, mean of 3, read-out: Brain concentration C (mean)",0 ng/g
same,concentration at 240 min,"male, CD-1, mouse, brain, ip, brain, 240 min, individual animals, read-out: Brain concentration, Final (individual sample)",0 ng/g
same,concentration at 240 min,"male, CD-1, mouse, brain, ip, brain, 240 min, mean of 3, read-out: Brain concentration C (mean)",0 ng/g
same,concentration at 360 min,"male, CD-1, mouse, brain, ip, brain, 360 min, individual animals, read-out: Brain concentration, Final (individual sample)",0 ng/g
same,concentration at 360 min,"male, CD-1, mouse, brain, ip, brain, 360 min, mean of 3, read-out: Brain concentration C (mean)",0 ng/g
same,concentration at 480 min,"male, CD-1, mouse, brain, ip, brain, 480 min, individual animals, read-out: Brain concentration, Final (individual sample)",0 ng/g
same,concentration at 480 min,"male, CD-1, mouse, brain, ip, brain, 480 min, mean of 3, read-out: Brain concentration C (mean)",0 ng/g
same,concentration at 1440 min,"male, CD-1, mouse, brain, ip, brain, individual animals, read-out: Brain concentration, Final (individual sample)",0 ng/g
same,concentration at 1440 min,"male, CD-1, mouse, brain, ip, brain, mean of 3, read-out: Brain concentration C (mean)",0 ng/g
same,concentration at 5 min,"male, CD-1, mouse, plasma, ip, plasma, 5 min, individual animals, read-out: Plasma concentration, Final (individual sample)",546 ng/mL
same,concentration at 5 min,"male, CD-1, mouse, plasma, ip, plasma, 5 min, mean of 3, read-out: Plasma concentration C (mean)",609 ng/mL
same,concentration at 15 min,"male, CD-1, mouse, plasma, ip, plasma, 15 min, mean of 3, read-out: Plasma concentration C (mean)",834 ng/mL
same,concentration at 30 min,"male, CD-1, mouse, plasma, ip, plasma, 30 min, mean of 3, read-out: Plasma concentration C (mean)",734 ng/mL
same,concentration at 60 min,"male, CD-1, mouse, plasma, ip, plasma, 60 min, mean of 3, read-out: Plasma concentration C (mean)",393 ng/mL
same,concentration at 120 min,"male, CD-1, mouse, plasma, ip, plasma, 120 min, mean of 3, read-out: Plasma concentration C (mean)",304 ng/mL
same,concentration at 240 min,"male, CD-1, mouse, plasma, ip, plasma, 240 min, mean of 3, read-out: Plasma concentration C (mean)",31.1 ng/mL
same,concentration at 360 min,"male, CD-1, mouse, plasma, ip, plasma, 360 min, mean of 3, read-out: Plasma concentration C (mean)",11.2 ng/mL
same,concentration at 480 min,"male, CD-1, mouse, plasma, ip, plasma, 480 min, individual animals, read-out: Plasma concentration, Final (individual sample)",0 ng/mL
same,concentration at 480 min,"male, CD-1, mouse, plasma, ip, plasma, 480 min, mean of 3, read-out: Plasma concentration C (mean)",0 ng/mL
same,concentration at 1440 min,"male, CD-1, mouse, plasma, ip, plasma, individual animals, read-out: Plasma concentration, Final (individual sample)",0 ng/mL
same,concentration at 1440 min,"male, CD-1, mouse, plasma, ip, plasma, mean of 3, read-out: Plasma concentration C (mean)",0 ng/mL
same,Cmax,"male, CD-1, mouse, plasma, ip, 10 mg/kg i.p.",834 ng/mL
same,AUC,"male, CD-1, mouse, plasma, ip, 10 mg/kg i.p., read-out: plasma AUC (converted)",1340 ng·h/mL
same,"CSF concentration, Final (individual sample)","CSF, 5 min, individual animals",0 ng/mL and 11.4 ng/mL and 16.0 ng/mL
same,"CSF concentration, Final (individual sample)","CSF, 15 min, individual animals",2.26 ng/mL and 1.62 ng/mL
same,"CSF concentration, Final (individual sample)","CSF, 30 min, individual animals",2.31 ng/mL and 1.36 ng/mL and 8.16 ng/mL
same,"CSF concentration, Final (individual sample)","CSF, 60 min, individual animals",1.05 ng/mL and 0 ng/mL
same,"CSF concentration, Final (individual sample)","CSF, 120 min, individual animals",4.07 ng/mL and 0 ng/mL
same,"CSF concentration, Final (individual sample)","CSF, 480 min, individual animals",1.20 ng/mL and 0 ng/mL
same,"Brain concentration, Final (individual sample)","brain, 5 min, individual animals",29.4 ng/g and 15.9 ng/g
same,"Brain concentration, Final (individual sample)","brain, 15 min, individual animals",15.1 ng/g and 20.3 ng/g and 9.28 ng/g
same,"Brain concentration, Final (individual sample)","brain, 30 min, individual animals",9.04 ng/g and 12.8 ng/g
same,"Brain concentration, Final (individual sample)","brain, 60 min, individual animals",7.24 ng/g and 0 ng/g and 12.8 ng/g
same,"Plasma concentration, Final (individual sample)","plasma, 5 min, individual animals",525 ng/mL and 757 ng/mL
same,"Plasma concentration, Final (individual sample)","plasma, 15 min, individual animals",1131 ng/mL and 825 ng/mL and 545 ng/mL
same,"Plasma concentration, Final (individual sample)","plasma, 30 min, individual animals",543 ng/mL and 519 ng/mL and 1140 ng/mL
same,"Plasma concentration, Final (individual sample)","plasma, 60 min, individual animals",539 ng/mL and 0 ng/mL and 640 ng/mL
same,"Plasma concentration, Final (individual sample)","plasma, 120 min, individual animals",446 ng/mL and 153 ng/mL and 313 ng/mL
same,"Plasma concentration, Final (individual sample)","plasma, 240 min, individual animals",33.6 ng/mL and 42.0 ng/mL and 17.7 ng/mL
same,"Plasma concentration, Final (individual sample)","plasma, 360 min, individual animals",0 ng/mL and 34 ng/mL
